Test results taken from the Kinase Knowledgebase extract (Sharma et al. 2016).
pIC50: −log10 of the molar value.

Target: PIK3CA (human) (UniProt P42336)
Test: Inhibition of PIK3CA Kinase Activity

Chain of PIK3CA (human) (P42336 whole entry, looked up): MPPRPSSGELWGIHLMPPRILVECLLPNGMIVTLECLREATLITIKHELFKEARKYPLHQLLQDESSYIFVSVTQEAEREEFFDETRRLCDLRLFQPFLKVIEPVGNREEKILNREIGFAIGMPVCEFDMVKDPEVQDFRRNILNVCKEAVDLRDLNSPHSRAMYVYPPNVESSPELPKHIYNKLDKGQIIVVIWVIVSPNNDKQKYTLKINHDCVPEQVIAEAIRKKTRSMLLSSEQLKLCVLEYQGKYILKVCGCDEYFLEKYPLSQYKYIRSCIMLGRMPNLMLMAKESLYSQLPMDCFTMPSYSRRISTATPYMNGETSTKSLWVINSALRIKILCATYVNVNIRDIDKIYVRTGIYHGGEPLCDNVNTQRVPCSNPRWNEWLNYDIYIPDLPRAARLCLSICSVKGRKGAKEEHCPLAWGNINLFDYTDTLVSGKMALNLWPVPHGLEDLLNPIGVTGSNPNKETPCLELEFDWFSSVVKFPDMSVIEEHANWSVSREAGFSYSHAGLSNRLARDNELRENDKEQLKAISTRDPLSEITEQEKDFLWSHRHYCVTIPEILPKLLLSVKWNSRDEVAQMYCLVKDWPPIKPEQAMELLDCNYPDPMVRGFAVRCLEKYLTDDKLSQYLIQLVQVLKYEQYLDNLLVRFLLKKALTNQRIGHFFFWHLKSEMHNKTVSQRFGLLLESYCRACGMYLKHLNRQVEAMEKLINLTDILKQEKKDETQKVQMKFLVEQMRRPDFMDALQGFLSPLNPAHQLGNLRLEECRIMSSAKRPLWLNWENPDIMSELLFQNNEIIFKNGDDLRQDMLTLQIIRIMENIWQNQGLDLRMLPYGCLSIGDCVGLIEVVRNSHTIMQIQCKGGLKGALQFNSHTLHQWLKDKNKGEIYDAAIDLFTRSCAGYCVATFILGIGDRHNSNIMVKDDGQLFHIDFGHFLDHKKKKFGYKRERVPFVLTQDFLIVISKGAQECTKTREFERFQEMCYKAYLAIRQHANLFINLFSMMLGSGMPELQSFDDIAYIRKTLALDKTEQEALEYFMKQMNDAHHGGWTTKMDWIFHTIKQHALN

| Structure (SMILES) | pIC50 |
| --- | --- |
| Nc1ccc(-c2nc(N3CCOCC3)nc(-n3ncc4c3CCCC4)n2)cn1 | > 6.00 |
| Cc1nc2ccccc2n1-c1nc(-c2ccc(N)nc2)nc(N2CCOCC2)n1 | > 6.00 |
| c1cc(-c2nc(N3CCOCC3)nc(-n3cnc(CN4CCCC4)c3)n2)c2cc[nH]c2c1 | > 6.00 |
| CCCCc1nccn1-c1nc(-c2cnc(N)nc2)nc(N2CCOCC2)n1 | > 6.00 |
| CCN(CC)CCN(C)Cc1cn(-c2nc(-c3cccc4[nH]ccc34)nc(N3CCOCC3)n2)cn1 | > 6.00 |
| Cc1nc2ccccc2n1-c1nc(-c2cc(O)cc(F)c2)nc(N2CCOCC2)n1 | > 6.00 |
| N#CCCc1nccn1-c1nc(-c2cnc(N)nc2)nc(N2CCOCC2)n1 | > 6.00 |
| COCCNC(=O)c1cc2ccccc2n1-c1nc(-c2cccc3[nH]ccc23)nc(N2CCOCC2)n1 | > 6.00 |
| CC(C)c1nc2ccccc2n1-c1nc(-c2cnc(N)nc2)nc(N2CCOCC2)n1 | > 6.00 |
| CCc1nc2ccccc2n1-c1nc(-c2cnc(N)nc2)nc(N2CCOCC2)n1 | > 6.00 |
| Nc1ccc(-c2nc(N3CCOCC3)nc(-n3ccc(C(F)(F)F)n3)n2)cn1 | > 6.00 |
| O=C(O)c1cc2ccccc2n1-c1nc(-c2cccc3[nH]ccc23)nc(N2CCOCC2)n1 | > 6.00 |
| Cc1ccn(-c2nc(-c3cnc(N)nc3)nc(N3CCOCC3)n2)n1 | > 6.00 |
| O=C(NC1CC1)c1cc2ccccc2n1-c1nc(-c2cccc3[nH]ccc23)nc(N2CCOCC2)n1 | > 6.00 |
| CC(C)c1nccn1-c1nc(-c2cnc(N)nc2)nc(N2CCOCC2)n1 | > 6.00 |
| Nc1ncc(-c2nc(N3CCOCC3)nc(-n3c(C(F)F)nc4ccccc43)n2)cn1 | > 6.00 |
| CCCc1nccn1-c1nc(-c2ccnc3[nH]ccc23)nc(N2CCOCC2)n1 | > 6.00 |
| CCCc1nc2ccccc2n1-c1nc(-c2cnc(N)nc2)nc(N2CCOCC2)n1 | > 6.00 |
| FC(F)(F)c1nc2ccccc2n1-c1nc(-c2cccc3[nH]ccc23)nc(N2CCOCC2)n1 | > 6.00 |
| Cc1nc2ccccc2n1-c1nc(-c2cccc(O)c2)nc(N2CCOCC2)n1 | > 6.00 |
| Cc1nccn1-c1nc(-c2cccc(O)c2)nc(N2CCOCC2)n1 | > 6.00 |
| Cc1cc(C)n(-c2nc(-c3ccc(N)nc3)nc(N3CCOCC3)n2)n1 | > 6.00 |

| Structure (SMILES) | pIC50 |
| --- | --- |
| C[C@H]1COCCN1c1nc(-c2cnc(N)nc2)nc(-n2c(C(F)F)nc3ccccc32)n1 | > 6.00 |
| c1ccc2c(c1)nc(C1CC1)n2-c1nc(-c2cccc3[nH]ccc23)nc(N2CCOCC2)n1 | > 6.00 |
| FC(F)c1nc2ccccc2n1-c1nc(-c2cccc3[nH]ccc23)nc(N2CCOCC2)n1 | > 6.00 |
| Cc1nc(N)ncc1-c1nc(N2CCOCC2)nc(-n2ccnc2C(C)C)n1 | > 6.00 |
| Cc1nc2ccccc2n1-c1nc(-c2cccc(CO)c2)nc(N2CCOCC2)n1 | > 6.00 |
| CCc1nccn1-c1nc(-c2cnc(N)nc2)nc(N2CCOCC2)n1 | > 6.00 |
| Cc1nc2ccccc2n1-c1nc(-c2cnc(N)nc2)nc(N2CCOCC2)n1 | > 6.00 |
| Nc1ncc(-c2nc(N3CCOCC3)nc(-n3ccc(C(F)(F)F)n3)n2)cn1 | > 6.00 |
| Nc1ccc2c(c1)nc(C(F)(F)F)n2-c1nc(-c2cccc3[nH]ccc23)nc(N2CCOCC2)n1 | > 6.00 |
| COc1nc(N)ncc1-c1nc(N2CCOCC2)nc(-n2ccnc2C)n1 | > 6.00 |
| Cc1nccn1-c1nc(-c2cnc(N)nc2)nc(N2CCOCC2)n1 | > 6.00 |
| CC(=O)Nc1ccc(-c2nc(N3CCOCC3)nc(-n3c(C)nc4ccccc43)n2)cn1 | > 6.00 |
| Cc1ccn(-c2nc(-c3ccc(N)nc3)nc(N3CCOCC3)n2)n1 | > 6.00 |
| Cc1cc(C(F)(F)F)n(-c2nc(-c3cnc(N)nc3)nc(N3CCOCC3)n2)n1 | > 6.00 |
| CCCCc1nc2ccccc2n1-c1nc(-c2cnc(N)nc2)nc(N2CCOCC2)n1 | > 6.00 |
| Cc1cc(C(F)(F)F)n(-c2nc(-c3ccc(N)nc3)nc(N3CCOCC3)n2)n1 | > 6.00 |
| Nc1ncc(-c2nc(N3CCOCC3)nc(-n3ncc4c3CCCC4)n2)cn1 | > 6.00 |
| COC(=O)CCc1nc2ccccc2n1-c1nc(-c2cccc3[nH]ccc23)nc(N2CCOCC2)n1 | > 6.00 |
| Cc1nccn1-c1nc(-c2cccc3[nH]ncc23)nc(N2CCOCC2)n1 | > 6.00 |
| Cc1nccn1-c1nc(-c2cccc(CO)c2)nc(N2CCOCC2)n1 | > 6.00 |
| Oc1cccc(-c2nc(N3CCOCC3)nc(-n3c(C(F)F)nc4ccccc43)n2)c1 | > 6.00 |

Second part, the compound after the results:

| pIC50 | Structure (SMILES) |
| --- | --- |
| > 6.00 | CCCCc1nc2ccccc2n1-c1nc(-c2cccc3[nH]ccc23)nc(N2CCOCC2)n1 |
| > 6.00 | CCCCc1nccn1-c1nc(-c2cccc3[nH]ccc23)nc(N2CCOCC2)n1 |
| > 6.00 | OCc1cn(-c2nc(-c3cccc4[nH]ccc34)nc(N3CCOCC3)n2)cn1 |
| > 6.00 | c1ccc(-c2nccn2-c2nc(-c3cccc4[nH]ccc34)nc(N3CCOCC3)n2)cc1 |
| > 6.00 | Cc1nc(CNC2CC2)cn1-c1nc(-c2cccc3[nH]ccc23)nc(N2CCOCC2)n1 |
| > 6.00 | CCc1nc2ccccc2n1-c1nc(-c2cccc3[nH]ccc23)nc(N2CCOCC2)n1 |
| > 6.00 | Cc1nc(CN2CCCC2)cn1-c1nc(-c2cccc3[nH]ccc23)nc(N2CCOCC2)n1 |
| > 6.00 | COCCNCc1cn(-c2nc(-c3cccc4[nH]ccc34)nc(N3CCOCC3)n2)c(C)n1 |
| > 6.00 | CC(C)Cc1nccn1-c1nc(-c2cccc3[nH]ccc23)nc(N2CCOCC2)n1 |
| > 6.00 | CC(C)c1nc2ccccc2n1-c1nc(-c2cccc3[nH]ccc23)nc(N2CCOCC2)n1 |
| > 6.00 | CC#Cc1cn(-c2nc(-c3cccc4[nH]ccc34)nc(N3CCOCC3)n2)c(CC)n1 |
| > 6.00 | Cc1cn(-c2nc(-c3cccc4[nH]ccc34)nc(N3CCOCC3)n2)cn1 |
| > 6.00 | CC(C)c1nccn1-c1nc(-c2cccc3[nH]ccc23)nc(N2CCOCC2)n1 |
| > 6.00 | CCc1nc(C)c(CO)n1-c1nc(-c2cccc3[nH]ccc23)nc(N2CCOCC2)n1 |
| > 6.00 | CCCc1nccn1-c1nc(-c2cccc3[nH]ccc23)nc(N2CCOCC2)n1 |
| > 6.00 | Cc1nc(CO)cn1-c1nc(-c2cccc3[nH]ccc23)nc(N2CCOCC2)n1 |
| > 6.00 | C#Cc1cn(-c2nc(-c3cccc4[nH]ccc34)nc(N3CCOCC3)n2)c(CC)n1 |
| > 6.00 | Cc1ccc2c(c1)ncn2-c1nc(-c2cccc3[nH]ccc23)nc(N2CCOCC2)n1 |

| pIC50 | Structure (SMILES) |
| --- | --- |
| > 6.00 | N#CCCc1nccn1-c1nc(-c2cccc3[nH]ccc23)nc(N2CCOCC2)n1 |
| > 6.00 | CCCc1nc2ccccc2n1-c1nc(-c2cccc3[nH]ccc23)nc(N2CCOCC2)n1 |
| > 6.00 | c1ccc(Cc2nccn2-c2nc(-c3cccc4[nH]ccc34)nc(N3CCOCC3)n2)cc1 |
| > 6.00 | C=Cc1nccn1-c1nc(-c2cccc3[nH]ccc23)nc(N2CCOCC2)n1 |
| > 6.00 | Cc1cc(C)n(-c2nc(-c3cccc4[nH]ccc34)nc(N3CCOCC3)n2)n1 |
| > 6.00 | CCc1nc(C)cn1-c1nc(-c2cccc3[nH]ccc23)nc(N2CCOCC2)n1 |
| > 6.00 | Cc1ccn(-c2nc(-c3cccc4[nH]ccc34)nc(N3CCOCC3)n2)n1 |
| > 6.00 | CCc1nccn1-c1nc(-c2ccnc3[nH]ccc23)nc(N2CCOCC2)n1 |
| > 6.00 | CCc1cn(-c2nc(-c3cccc4[nH]ccc34)nc(N3CCOCC3)n2)c(CC)n1 |
| > 6.00 | N#CC=Cc1nccn1-c1nc(-c2cccc3[nH]ccc23)nc(N2CCOCC2)n1 |
| > 6.00 | Cc1nc2ccccc2n1-c1nc(-c2cccc3[nH]ccc23)nc(N2CCOCC2)n1 |
| > 6.00 | CCCc1cn(-c2nc(-c3cccc4[nH]ccc34)nc(N3CCOCC3)n2)c(CC)n1 |
| > 6.00 | CCc1nccn1-c1nc(-c2cccc3[nH]ccc23)nc(N2CCOCC2)n1 |
| > 6.00 | c1cc(-c2nc(N3CCOCC3)nc(-n3ccnc3)n2)c2cc[nH]c2c1 |
| > 6.00 | Cc1nccn1-c1nc(-c2cccc3[nH]ccc23)nc(N2CCOCC2)n1 |
| > 6.00 | CCCCN(C)Cc1c(C)nc(CC)n1-c1nc(-c2cccc3[nH]ccc23)nc(N2CCOCC2)n1 |
| > 6.00 | CCc1nc(C#Cc2ccccn2)cn1-c1nc(-c2cccc3[nH]ccc23)nc(N2CCOCC2)n1 |
| > 6.00 | CCCCN(C)Cc1cn(-c2nc(-c3cccc4[nH]ccc34)nc(N3CCOCC3)n2)c(C)n1 |
